According to patent US20090061022A1, “Pharmaceutical composition comprising arsenite for the treatment of malignancy” (priority 2004, published 2009):
Where “and” joins values, the source holds several entries; their conditions need not be identical. Equal values may be shown once.

Legend:
[1] = test system: CCRF-CEM; assay: Cytotoxic activity, propidium iodide fluorescence assay, panel of 9 human cancer cell lines; format: cell-based; details: CCRF-CEM leukemia, 3-7 days
Method: (§1) Three kinds of stock solutions were prepared for in vitro cytotoxic activity test. The first solution is DMSO (dimethyl sulfoxide) mixed with sodium meta-arsenite. […] The third solution is DMSO mixed with arsenic acid sodium salt. Those three solutions were diluted with culture medium (RPMI 1640). The final concentrations of DMSO in those three solutions are less than 0.3 vol %.
(§2) Nine kinds of human cancer cell lines out of six kinds of cancers were grown at 37° C. under a controlled atmosphere of 95% air and 5% CO2. The cells were grown on monolayer cultures of RPMI 1640 cell culture medium supplemented with 10% fetal calf serum.
(§3) The grown cells were harvested from exponential phase cultures by trypsinization and counted. The counted cells were placed in a plate, which has ninety six wells. Each well on the plate is in a shape of a flat-bottomed microtitre. Density of the cells in a suspension was adjusted depending on the cell line. The suspension was prepared by diluting the grown cells with the culture medium (RPMI 1640). Concentration of the cells were varied from 5×10^4 to 1×10^5 viable cells/ml. 100 μl of the suspension was placed in each well of the plate. […] Then add 50 μl of culture medium (RPMI 1640) only to 6 wells, 50 μl/well, among the 96 wells of one plate. It is called controlled. One well is filled with culture medium plus 5-FU. And another 50 μl of culture medium plus one of the stock solutions were added to each of the left 89 wells to allow cells to resume exponential growth.
(§4) The cytotoxic activity test was executed with three plates simultaneously to check reliability of the data obtained. The three plates contain the same samples of cancer cells. The three plates were then incubated for 3-7 days under the same controlled atmosphere and cell proliferation was assessed with a modified propodium iodide fluorescence assay. After thawing of the plates, fluorescence was measured using a Millipore Cytofluor 2350-microplate reader (excitation 530 nm emission 620 nm) in order to quantify the total cell number. The assay included untreated and positive controls containing 5-FU.
(§5) Growth inhibition is defined as (numbers of cancer cell alive) treated (T)/(number of cells) control (C)×100% (T/C %).

[2] = test system: HT29; assay: as above; format: cell-based; details: HT29 colon cancer, 3-7 days
Method: as §1, §2, §3, §4, §5

[3] = test system: K562; assay: as above; format: cell-based; details: K562 leukemia, 3-7 days
Method: as §1, §2, §3, §4, §5

[4] = test system: LXFL 529L; assay: as above; format: cell-based; details: LXFL 529L NSCLC, 3-7 days
Method: as §1, §2, §3, §4, §5

[5] = test system: MEXF 462NL; assay: as above; format: cell-based; details: MEXF 462NL melanoma, 3-7 days
Method: as §1, §2, §3, §4, §5

[6] = test system: MEXF 514L; assay: as above; format: cell-based; details: MEXF 514L melanoma, 3-7 days
Method: as §1, §2, §3, §4, §5

[7] = test system: RXF 944L; assay: as above; format: cell-based; details: RXF 944L renal cancer, 3-7 days
Method: as §1, §2, §3, §4, §5

[8] = test system: U937; assay: as above; format: cell-based; details: U937 lymphoma, 3-7 days
Method: as §1, §2, §3, §4, §5

[9] = test system: UXF 1138; assay: as above; format: cell-based; details: UXF 1138 uterine body, 3-7 days
Method: as §1, §2, §3, §4, §5

[10] = test system: panel of 9 human cancer cell lines; assay: Cytotoxic activity, whole panel of 9 human cancer cell lines (means, active/total); format: cell-based; details: for Active/Total cancer cell lines / Active/Total cancer cell lines, percent: active = T/C<30
Method: as §1, §2
as §3, with “1640).” for “1640). Concentration of the cells were varied from 5×10^4 to 1×10^5 viable cells/ml. 100 μl of the suspension was placed in each well of the plate.”
as §4, §5

[11] = test system: panel of 12 human cancer cell lines; assay: Cytotoxic activity, whole panel of 12 human cancer cell lines, modified propidium iodide assay; details: for times more potent than arsenic acid sodium salt: panel of 12
Method: as §2, §3
In a further study, the cytotoxic activity profile of sodium meta-arsenite and arsenic acid sodium salt was investigated in different panels containing twelve (12) human cancer cell lines from eight (8) kinds of human cancers. The cancer cell samples were prepared as described in 1-1-B. Propidium iodide fluorescence assay method for this test was modified as the follows.

[12] = mean over human cancer cell lines tested (9 line panel)
[13] = panel of 12 human cancer cell lines, 4 days

Structure (SMILES): O=[As][O-].[Na+] [Sodium meta-arsenite, sodium meta-arsenite]
- T/C % at drug concentration ([1]; 1 μg/ml): 48%
- T/C % at drug concentration ([1]; 10 μg/ml): 43%
- T/C % at drug concentration ([1]; 100 μg/ml): 29%
- T/C % at drug concentration ([2]; 1 μg/ml): 91%
- T/C % at drug concentration ([2]; 3 μg/ml): 60%
- T/C % at drug concentration ([2]; 10 μg/ml): 40%
- T/C % at drug concentration ([2]; 30 μg/ml): 22%
- T/C % at drug concentration ([2]; 100 μg/ml): 14%
- T/C % at drug concentration ([3]; 1 μg/ml): 51%
- T/C % at drug concentration ([3]; 3 μg/ml): 15%
- T/C % at drug concentration ([3]; 10 μg/ml): 15%
- T/C % at drug concentration ([3]; 30 μg/ml): 18%
- T/C % at drug concentration ([3]; 100 μg/ml): 13%
- T/C % at drug concentration ([4]; 1 μg/ml): 79%
- T/C % at drug concentration ([4]; 3 μg/ml): 61%
- T/C % at drug concentration ([4]; 10 μg/ml): 21%
- T/C % at drug concentration ([4]; 30 μg/ml): 7%
- T/C % at drug concentration ([4]; 100 μg/ml): 4%
- T/C % at drug concentration ([5]; 1 μg/ml): 112%
- T/C % at drug concentration ([5]; 3 μg/ml): 120%
- T/C % at drug concentration ([5]; 10 μg/ml): 101%
- T/C % at drug concentration ([5]; 30 μg/ml): 91%
- T/C % at drug concentration ([5]; 100 μg/ml): 15%
- T/C % at drug concentration ([6]; 1 μg/ml): 120%
- T/C % at drug concentration ([6]; 3 μg/ml): 95%
- T/C % at drug concentration ([6]; 10 μg/ml): 98%
- T/C % at drug concentration ([6]; 30 μg/ml): 70%
- T/C % at drug concentration ([6]; 100 μg/ml): 21%
- T/C % at drug concentration ([7]; 1 μg/ml): 124%
- T/C % at drug concentration ([7]; 3 μg/ml): 79%
- T/C % at drug concentration ([7]; 10 μg/ml): 57%
- T/C % at drug concentration ([7]; 30 μg/ml): 32%
- T/C % at drug concentration ([7]; 100 μg/ml): 9%
- T/C % at drug concentration ([8]; 1 μg/ml): 3%
- T/C % at drug concentration ([8]; 3 μg/ml): 3%
- T/C % at drug concentration ([8]; 10 μg/ml): 2%
- T/C % at drug concentration ([8]; 30 μg/ml): 2%
- T/C % at drug concentration ([8]; 100 μg/ml): 1%
- T/C % at drug concentration ([9]; 1 μg/ml): 107%
- T/C % at drug concentration ([9]; 3 μg/ml): 114%
- T/C % at drug concentration ([9]; 10 μg/ml): 103%
- T/C % at drug concentration ([9]; 30 μg/ml): 95%
- T/C % at drug concentration ([9]; 100 μg/ml): 30%
- Active/Total cancer cell lines ([10]; 1 μg/ml): 1/9
- Active/Total cancer cell lines, percent ([10]; 1 μg/ml): 11%
- Active/Total cancer cell lines ([10]; 3 μg/ml): 2/8
- Active/Total cancer cell lines, percent ([10]; 3 μg/ml): 25%
- Active/Total cancer cell lines ([10]; 10 μg/ml): 3/9
- Active/Total cancer cell lines, percent ([10]; 10 μg/ml): 33%
- Active/Total cancer cell lines ([10]; 30 μg/ml): 4/8
- Active/Total cancer cell lines, percent ([10]; 30 μg/ml): 50%
- Active/Total cancer cell lines, percent ([10]; 100 μg/ml): 89%
- Assessment from comparison of the IC50 values ([10]; 9 cell line panel): most potent compound of the series
- IC50 [10, 12]: 56 µM
- IC90 [10, 12]: 490 µM
- Mean IC50 [10, 12]: 7.3 µg/mL
- Mean IC70 [10, 12]: 19.8 μg/ml and 152 μM
- Mean IC90 [10, 12]: 63.7 µg/mL
- human cancer cell lines in which active, percent of 12 ([11]; 1 μg/ml): 33%
- human cancer cell lines in which active, percent of 12 ([11]; dose level 10 μg/ml): 100%
- human cancer cell lines in which active, percent of 12 ([11]; dose level 100): 100%
- cytotoxic activity in panel of 12 ([11]; dose level lower than 1 μg/ml): did not display any cytotoxic activity at all
- times more potent than arsenic acid sodium salt ([11]; in μg/ml): over 20 times
- times more potent than arsenic acid sodium salt ([11]; on a molar basis): approximately 10 times
- Mean IC50 [11, 13]: 0.9 µg/mL
- Mean IC70 [11, 13]: 2.0 μg/ml and 15 μM
- Mean IC90 [11, 13]: 6.8 µg/mL
- IC50 ([11]; read-out: Mean IC50, panel of 12 human cancer cell lines, 4 days): 7 µM
- IC90 ([11]; read-out: Mean IC90, panel of 12 human cancer cell lines, 4 days): 52 µM
